In patent publication US7320995B2, “Benzimidazoles and benzothiazoles as inhibitors of map kinase” (Eli Lilly and Company, priority 2002, dated 2008):
Each block holds one molecule with its values, some of them ahead of it.

Experiments:
[1] = system: TNF-α production in mouse peritoneal macrophages; assay: Inhibition of TNF-α in vitro, mouse peritoneal macrophages, Luminex; format: cell-based; conditions: Peritoneal macrophage; LPS and interferon-γ stimulated mouse peritoneal macrophages, 18 hours; read-out: IC50, suppression of TNF-α in vitro
Experimental: At day 4 or 5 post-injection the mice are sacrificed and then injected i.p. with 4 mL Dulbecco's phosphate-buffered saline (BioWhittaker) and the peritoneal macrophages are withdrawn by syringe. Mouse peritoneal macrophages are counted with a hemocytometer and adjusted to 2.5×10^6 cells/ml complete media (RPMI-1640 medium containing 10% fetal bovine serum). Cells are plated in 96-well flat-bottom plates at 5×10^5 cells per 200 μl per well and allowed to settle and adhere to the bottom of the well for at least 3 hours. […] (20 μL/well). The cells are then treated with a mixture of 50 ng/L lipopolysaccharide (LPS) and 10 U/mL interferon-γ for 18 hours at 37° C. (20 μL/well). The conditioned media is harvested and assayed for TNF-α production using the Luminex procedure. […] The premixed anti-cytokine conjugated beads are vortexed (25×) vigorously for 30 seconds. The anti-cytokine conjugated beads are diluted to a 1× concentration using 1× Bio-Plex Assay Buffer. For every plate, 240 μL of the pre-mixed beads is added to 5760 μL of Bio-Plex Assay Buffer. […] The blocking buffer is filtered through using a Millipore filtration system and then toweled dry. Two washes are performed on the filter plate with 100 μl/well of Bio-Plex Assay Buffer and toweled dry. The 1× anti-cytokine conjugated beads are vortexed for 15 seconds and added 50 μL to each well. This is filtered through and toweled dry. Two washes are performed on plates with 100 μl/well of Bio-Plex Wash Buffer. Again, it is filtered through and toweled dry. 50 μL of sample or standard is added to each sample well. This is incubated for 60 seconds at room temperature on a shaker protected from light at setting 6 and then for 30 minutes at setting 3 and then placed in the refrigerator overnight. […] Standards and samples are read on a Luminex machine. These intensity readings are then converted to picogram/milliliter units based on a 12-point standard curve created in duplicate using a four-parameter logistic regression method (Bio-Plex Manager, Versions 2.0 and 3.0, Bio-Rad), and the IC50 calculated.

[2] = Rat collagen induced arthritis efficacy model; format: in vivo, female Lewis rats
Experimental: Female Lewis rats ((≅190 gm, Charles River Labs) are immunized with Bovine type II collagen (2 mg/ml) emulsified with an equal volume of adjuvant (aluminum hydroxide). […]. The rats are immunized with approximately […] of the emulsion intradermally on the back near the base of the tail. All animals are re-immunized 7 days later according to the same protocol. The rats begin to develop arthritis (characterized by swelling and redness of one or both ankles) from 12 to 14 days after the first immunization. The rats are equally distributed into five treatment groups at the first signs of arthritis and treatment is initiated with each rat dosed bid for 14 days.
• Group 1 Vehicle (1% NaCarboxymethylcellulose+0.25% Tween 80) 1 mL, PO, Bid×14 days • Group 2 Example 77 (free base), 5 mg/kg, 1 mL, PO, Bid×14 • Group 3 Example 77 (free base), 15 mg/kg, 1 mL, PO, Bid×14 • Group 4 Example 77 (free base), 30 mg/kg, 1 mL, PO, Bid×14 • Group 5 Prednisolone 10 mg/kg, 1 mL, PO, qd×14
Ankle diameter is measured with calipers 5 days a week and recorded. Data is expressed as the area under the curve (AUC) generated from the composite inflammation scores and statistical analysis performed.
At the termination of the study, animals were sacrificed and ankles processed for histological evaluation. […]

[3] = system: angiogenesis; conditions: J. R. Jackson, et al., 1998; cited from earlier work
[4] = system: B16F10 melanoma lung metastases; assay: Inhibition of B16F10 melanoma lung metastases; format: in vivo, C57B16 mice; conditions: day -1 to 16
Experimental: The B16F10 melanoma cell line is obtained from the American Type Culture Collection, Rockville, Md. The cells are cultured in RPMI-1640 medium supplemented with 10% fetal calf serum. The cells grown in vitro are harvested during their exponential growth phase by gentle trypsinization, washed twice in medium, and resuspended in serum-free RPMI-1640 medium. The number of monodisperse viable cells is determined using a hemocytometer and adjusted to 1×10^6 cells/mL. Tumor cells are injected intravenously into the tail vein of normal C57B16 mice with an inoculum volume of 0.2 ml containing 200,000 cells. Mice are treated with test compound or vehicle control starting 1 day before i.v. tumor inoculation. Example 77 (free base) is prepared as a suspension formulation in 1% NaCMC/0.25% polysorbate 80 and probe sonicated in an injection volume of 1% body weight (e.g., the 30 mg/kg dose level is prepared at 3 mg/ml and 0.2 cc was administered per 20 gram mouse). Mice are treated orally tid. with the compound at 30, 10, and 3 mg/kg (90, 30, and 9 mg/kg/day) from days −1 through 16 after tumor cell inoculation. Control mice receive the vehicle alone in an identical manner. On day 16, the mice are sacrificed, and the lungs are harvested and fixed in 3% paraformaldehyde. Lung lesions are quantitated by manual counting under a dissecting microscope.
The test compound was tested in the B16F10 melanoma lung metastasis model orally at 3, 10, and 30 mg/kg, tid from one day before to 16 days after i.v. tumor inoculation (total dose 9, 30 and 90 mg/kg/day). The lungs were harvested on day 16 and lung lesions were quantitated.

[5] = system: P815 tumors; assay: Inhibition of P815 tumor growth in vivo; design: species or system DBA/2 mice
Experimental: Female(6-8 weeks old) DBA/2 mice (Taconic) are implanted subcutaneously into the hind flank region on day 0 with P815 cells (0.5×10^6 cells in 200 ul of RPMI 1640). P815 tumor cells are purchased from ATCC and are cultured in RPMI 1640 medium, supplemented with glutamine and 10% bovine serum at 37° C. in 5% CO2 cell culture incubator. Tumor-bearing animals are treated with oral administration of Example 77 (free base), at different doses or vehicle with frequency of three times a day started on the day of implantation. Tumor growth is monitored every 2 days by measuring perpendicular diameters. Tumor volume expressed in milligram (mg) is determined as the product of the largest diameter (a) and its perpendicular (b) according to the formula [tumor volume=a×b^2×0.536].

[6] = system: MAPKAP-K2 phosphorylation in P815 tumors; assay: In vivo target inhibition study in P815 mastocytoma model; design: species or system DBA/2 mice; conditions: single oral dose 30 mg/kg
Experimental: In vivo target inhibition is determined by measuring the effect of inhibitor treatment on the phosphorylation of MAPKAP-K2 expressed in P815 tumor tissues. Tumors in DBA/2 mice received P815 cells subcutaneous implantation are allowed to grow to a size of 300-500 mg without treatment. Tumor bearing mice are then given oral administration of Example 77 (free base) or vehicle. To investigate time course related target inhibition by Example 77 (free base), tumors are harvested from CO2 sacrificed animals at the indicated times (3 hours, 6 hours, 12 hours, and 18 hours) after compound is dosed at 30 mg/kg. Dose-dependent target inhibition by Example 77 (free base) is investigated by harvesting tumors at 3 hours after orally given different doses of Example 77 (free base) or vehicle. Harvested tumors are immediately snap frozen onto dry ice, pulverized, homogenized and lysed in cooled lysis buffer containing proteinase and phosphatase inhibitors. After centrifugation to remove cell debris, supernatants containing 100 microgram total proteins are resuspended in 2×Tris-Glycin loading buffer and subjected to sodium dodecyl sulfate-polyacrylamide gel electrophoresis (10% Tris-Glycine) under reducing conditions. […] Expression level of phospho-p38 MAP kinase and total p-38 MAP kinase is also monitored by similar western blotting procedure.

[7] = system: TNF-α; assay: Effect on intra-articular LPS induced TNF-α (synovial lavage fluid, ELISA); format: in vivo, female Lewis rats; conditions: orally, one hour before intra-articular LPS, lavage after two hours
Experimental: Intra-articular injection of LPS into rat […] induces the synthesis of TNF-α, which can be measured in synovial lavage fluid. High levels of TNF-α are detectable within 2 hours. Since the joint is the site where arthritis develops, this model can rapidly determine whether an orally administered compound has an effect on an inflammatory response in the synovium.
Six female Lewis rats (150-200 g) are place in each treatment group. The animals are given vehicle (1% NaCarboxymethylcellulose-0.25% Tween 80) or Example 77 (free base) (1 mg/kg, 3 mg/kg, 10 mg/kg, and 30 mg/kg) orally. One hour later, 10 μl LPS (10 μg) is administered intra-articulately into the right ankle of each rat, while the left ankle receives 10 μL of saline. After two hours, each […] is laved with 100 μL of saline. The lavage is collected and stored at −80° C. • Group#1: Vehicle (1% NaCMC-0.25% Tween 80, 1 mL, PO) • Group#2: Example 77 (free base) (1 mg/kg, 1 mLl, PO) • Group#3: Example 77 (free base) (3 mg/kg, 1 mL, PO) • Group#4: Example 77 (free base) (10 mg/kg, 1 mL, PO) • Group#5: Example 77 (free base) (30 mg/kg, 1 mL, PO)
TNF-α was measured with a commercially available ELISA kit (R&D, RTA00). […] The TMED50=10 mg/kg for Example 77 in this assay.

[8] = system: MAPKAPK-2 phosphorylation (p38 MAPK) in B16F10 tumors; assay: B16F10 target (phosphorylated MAPKAPK-2) studies, immuno-blot of tumors; format: in vivo, C57B16 mice

Structure (SMILES): CC(C)S(=O)(=O)n1c(N)nc2ccc(-c3nc(-c4ccncc4)[nH]c3-c3ccccc3)cc21 [Example 16, 1-isopropylsulfonyl-2-amino-6-(2-(pyridin-4-yl)-5-(phenyl)-imidazol-4-yl)-benzimidazole]
IC50 [1]: < 100 nM

Structure (SMILES): C[C@]12C=CC(=O)C=C1CC[C@@H]1[C@@H]2[C@@H](O)C[C@@]2(C)[C@H]1CC[C@]2(O)C(=O)CO [Prednisolone, reference compound]
inflammation (ankle diameter) ([2]; 10 mg/kg PO qd x 14): reduced the inflammation to pre-arthritic levels

Structure (SMILES): Nc1nccc(-c2c(-c3ccc(F)cc3)ncn2C2CCNCC2)n1 [SB22025]
inhibition of angiogenesis [3]: has been shown to inhibit angiogenesis

Structure (SMILES): CC(C)S(=O)(=O)n1c(N)nc2ccc(-c3nc(-c4c(F)cccc4F)[nH]c3-c3ccccc3)cc21 [Example 77, 1-isopropylsulfonyl-2-amino-6-(2-(2,6-difluorophenyl)-5-(phenyl)-imidazol-4-yl)-benzimidazole]
inhibition of lung metastasis formation ([4]; 3 mg/kg orally tid): 54%
inhibition of lung metastasis formation ([4]; 10 mg/kg orally tid): 73%
inhibition of lung metastasis formation ([4]; 30 mg/kg orally tid): 95%
inhibition of tumor volume ([5]; 3 mg/kg oral tid): 55%
inhibition of tumor volume ([5]; 30 mg/kg oral tid): 67%
earliest time of the inhibitory effect on MAPKAP-K2 phosphorylation [6]: 3 h
time to which the inhibitory effect on MAPKAP-K2 phosphorylation extended [6]: 12 h
maximum reduction in ankle diameter ([2]; 30 mg/kg PO bid x 14 days): 46%
TMED50, inhibition of TNF-α synthesis in synovial lavage fluid [7]: 10 mg/kg
time for which p38 MAPK activity was inhibited ([8]; 30 mg/kg, time course study): up to 9 hours
ANOVA TMED50, inhibition of MAPKAPK-2 phosphorylation ([8]; 2.5 hours after p.o. dosing): 3 mg/kg
lowest dose with appreciable inhibition of MAPKAPK-2 phosphorylation ([8]; 2.5 hours after p.o. dosing): 0.3 mg/kg
reduction of the phosphorylation level of MAPKAPK-2 in the tumors ([8]; doses >30 mg/kg): > 80%

Results, then the molecule that gave them:

IC50 [1]: < 100 nM
Structure (SMILES): CC(C)S(=O)(=O)n1c(N)nc2ccc(-c3nc(-c4nccs4)[nH]c3-c3ccccc3)cc21 [Example 17, 1-isopropylsulfonyl-2-amino-6-(2-(thiazol-2-yl)-5-(phenyl)-imidazol-4-yl)-benzimidazole]

IC50 [1]: < 100 nM
Structure (SMILES): CC(C)S(=O)(=O)n1c(N)nc2ccc(-c3nc(-c4cccs4)[nH]c3-c3ccccc3)cc21 [Example 1, 1-isopropylsulfonyl-2-amino-6-(2-(thien-2-yl)-5-(phenyl)-imidazol-4-yl)-benzimidazole methanesulfonate]
